Target: T1, human GnRH receptor (Homo sapiens, UniProt P30968)
T1 construct: expressed in transfected cells; host or cells: RBL cells, stably transfected (in general)
T1 sequence (P30968 1-328): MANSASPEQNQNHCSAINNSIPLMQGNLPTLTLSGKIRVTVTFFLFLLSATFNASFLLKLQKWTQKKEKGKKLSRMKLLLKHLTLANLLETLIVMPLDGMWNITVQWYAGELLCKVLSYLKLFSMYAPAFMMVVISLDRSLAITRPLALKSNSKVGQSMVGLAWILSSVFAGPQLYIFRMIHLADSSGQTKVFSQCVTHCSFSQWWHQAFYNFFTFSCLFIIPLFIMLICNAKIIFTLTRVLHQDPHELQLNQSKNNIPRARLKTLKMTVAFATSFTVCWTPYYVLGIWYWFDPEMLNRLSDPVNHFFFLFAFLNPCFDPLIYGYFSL
Assay: Peptide competition radioligand binding displacement assay, human GnRH receptor membranes
Conditions: one or more of the peptide competition human receptor binding assays
Method: cDNA's of human, rhesus macaque, rabbit, dog and rat GnRH receptors are cloned into pcDNA3.1 (+) (Invitrogen). Full length sequences of all receptors are confirmed by DNA sequencing. HEK 293, CHO, COS-7, or rat basophilic leukemia (RBL) cells are stably transfected with human, rat, or macaque GnRH receptors and high expressing single cell clones (Bmax≧0.4 pMol/mg membrane protein) are isolated and maintained in Dulbecco's Modified Eagles Medium (DMEM) with following supplements: 10 mM HEPES; 2 mM L-glutamine; 1 mM Sodium Pyruvate; 50 U/mL penicillin, 50 μg/mL streptomycin; 10% Heat-inactivated Fetal Bovine Serum and 200 μg/mL Geneticin (G-418-Sulfate). Non-essential amino acids (0.1 mM) (Irvine Scientific; Santa Ana, Calif.) are included in the RBL cell media.
In general, initial peptide radioligand binding assays are carried out using membranes from stably transfected RBL cells. RBL stable clones are found to more consistently express high levels of GnRH receptor and are therefore used for subsequent binding studies as well as Ca^++ flux and inositol phosphate accumulation assays. Transiently transfected COS-7 cells are used for preparation of membranes containing GnRH receptors from multiple species (as well as those of mutant receptors for other studies) because of the convenience for rapidly analyzing multiple receptors.
HEK293 cells stably transfected with the human GnRH receptor are grown for two days after achieving confluence then are harvested by striking tissue culture flasks against a firm surface. Cells are collected by centrifugation at 1000 g for 5 minutes. Cell pellets are resuspended in 5% sucrose and homogenized using a polytron homogenizer for two 15 second homogenization steps. Cell homogenates are then centrifuged for 5 minutes at 3000 g to remove nuclei and the supernatant subsequently centrifuged for 30 minutes at 44,000 g to collect the membrane fraction. The membrane pellet is resuspended in GnRH binding buffer (10 mM HEPES, pH 7.5, 150 mM NaCl and 0.1% BSA) and aliquots immediately snap-frozen in liquid nitrogen and stored at −80° C. Protein content of the membrane suspension is determined using the Bio-Rad protein assay kit (Bio-Rad).
RBL cells stably transfected with the human GnRH receptor are grown to 80% confluency prior to harvesting. The cells are incubated at 37° C. for 10 min in 0.5 mM EDTA/PBS (Ca^++, Mg^++ free), and are dislodged from the plate by gentle rapping of the flasks. Cells are collected and pelleted by centrifugation at 1000 g for 5 minutes. Cell pellets are resuspended in buffer (DPBS supplemented with 10 mM MgCl2, 2 mM EGTA, pH=7.4), and cell lysis is performed using a pressure cell and applying N2 at a pressure of 900 psi for 30 min at 4° C. Unbroken cells and larger debris were removed by centrifugation at 1200 g for 10 min at 4° C. The cell membrane supernatant is then centrifuged at 45,000 g and the resulting membrane pellet is resuspended in assay buffer and homogenized on ice using a tissue homogenizer. Protein concentrations are determined using the Coomassie Plus Protein Reagent kit. Membranes are aliquoted and stored at −80° C. until ready for use.
COS-7 cells transiently transfected with GnRH receptors from different species (human, macaque, dog, rabbit, rat) or mutant GnRH receptors are prepared by bulk electroporation. COS-7 cells are obtained from American Type Cell Culture (Manassas, Va.) and are maintained in Dulbeccos's modified Eagle's medium (DMEM) (MediaTech Inc., Herndon, Va.) containing 10% fetal bovine serum, 10 mM HEPES, 2 mM L-glutamine, 1 mM sodium pyruvate, 50 U/mL penicillin, 50 μg/mL streptomycin. COS-7 cells are seeded in 500 cm^2 tissue culture plates and grown to confluency prior to cell transfection. […]

Row | Ki [nM] | SMILES
1 | ≤ 100 | CN(C(=O)c1ccc(Cl)c(-c2nc3ccccc3cc2C#N)c1)c1ccccc1CCCC(=O)O [15-1, 4-(2-{[4-Chloro-3-(3-cyano-quinolin-2-yl)-benzoyl]-methyl-amino}-phenyl)-butyric acid]
2 | ≤ 100 | Cc1cc(Cl)c(-c2cc(C(=O)N(C)c3cccc(C(F)(F)F)c3C)ccc2Cl)c(C)n1 [2-25]
3 | ≤ 100 | COC(=O)COc1ccccc1N(C)C(=O)c1ccc(Cl)c(-c2cnc(Cl)cc2C)c1 [3-1, (2-{[4-chloro-3-(6-chloro-4-methyl-pyridin-3-yl)-benzoyl]-methyl-amino}-phenoxy)-acetic acid methyl ester]
4 | ≤ 100 | CCOC(=O)CCOc1ccccc1N(C)C(=O)c1ccc(Cl)c(-c2cnc(C(F)(F)F)cc2C#N)c1 [16-2, 3-(2-{[4-chloro-3-(4-cyano-6-trifluoromethyl-pyridin-3-yl)-benzoyl]-methyl-amino}-phenoxy)-propionic acid ethyl ester]
5 | ≤ 100 | COc1ccccc1N(C)C(=O)c1cc(-c2cnc(C(F)(F)F)cc2C#N)c(Cl)cc1OCCc1ccccn1 [42-4]
6 | ≤ 100 | Cc1cc(C(F)(F)F)ncc1-c1cc(C(=O)N(C)c2ccccc2OCCC(=O)O)ccc1Cl [11-3]
7 | ≤ 100 | Cc1cccc(OCCCC(=O)O)c1N(C)C(=O)c1ccc(Cl)c(-c2ncc(C(F)(F)F)cc2Cl)c1 [5-3]
8 | ≤ 100 | Cc1cc(C(F)(F)F)nc(=O)n1-c1cc(C(=O)N(C)c2ccccc2F)ccc1Cl [30-16]
9 | ≤ 100 | CN(C(=O)c1ccc(Cl)c(-c2cnc(C(F)(F)F)cc2C#N)c1)c1cccc(F)c1OCCCC(=O)O [4-12]
10 | ≤ 100 | CN(C(=O)c1ccc(Cl)c(-c2nc3cccc(F)c3cc2C#N)c1)c1ccccc1OCCCC(=O)O [33-1, 4-(2-{[4-Chloro-3-(3-cyano-5-fluoro-quinolin-2-yl)-benzoyl]-methyl-amino}-phenoxy)-butyric acid]
11 | ≤ 100 | COc1cc(Cl)ccc1N(C)C(=O)c1cc(-c2cnc(C(F)(F)F)cc2C#N)c(Cl)cc1OCCCC(=O)O [34-2]
12 | ≤ 100 | COC(=O)CCCOc1cccc(C)c1N(C)C(=O)c1ccc(Cl)c(-c2cnc(C(F)(F)F)cc2C#N)c1 [3-11]
13 | ≤ 100 | COC(=O)c1ccccc1N(C)C(=O)c1ccc(Cl)c(-c2ncc(Cl)cc2C)c1 [2-72]
14 | ≤ 100 | COC(=O)c1ccccc1N(C)C(=O)c1cc(-c2cnc(C(F)(F)F)cc2C#N)c(Cl)cc1OC [39-2]
15 | ≤ 100 | Cc1cc(Cl)ncc1-c1cc(C(=O)N(C)c2ccccc2OCCCC(=O)O)ccc1Cl [4-2]
16 | ≤ 100 | COc1cc(Cl)c(-c2cnc(C(F)(F)F)cc2C#N)cc1C(=O)N(C)c1cc(F)ccc1OC [39-5]
17 | ≤ 100 | CC(OC(=O)CCOc1ccccc1N(C)C(=O)c1ccc(Cl)c(-c2cnc(C(F)(F)F)cc2C#N)c1)OC(=O)OC1CCCCC1 (stereo not shown) [37-1, 3-(2-{[4-Chloro-3-(4-cyano-6-trifluoromethyl-pyridin-3-yl)-benzoyl]-methyl-amino}-phenoxy)-propionic acid 1-cyclohexyloxycarbonyloxy-ethyl ester]
18 | ≤ 100 | Cc1cc(Cl)ncc1-c1cc(C(=O)N(C)c2ccccc2OCC(=O)O)ccc1Cl [4-1, (2-{[4-Chloro-3-(6-chloro-4-methyl-pyridin-3-yl)-benzoyl]-methyl-amino}-phenoxy)-acetic acid]
19 | ≤ 100 | CSc1ccccc1N(C)C(=O)c1ccc(Cl)c(-c2cnc(C(F)(F)F)cc2C#N)c1 [2-81]
20 | ≤ 100 | COc1cc(Cl)c(-c2cnc(C(F)(F)F)cc2C#N)cc1C(=O)N(C)c1ccccn1 [39-14]
21 | ≤ 100 | COc1cccc(C)c1N(C)C(=O)c1ccc(Cl)c(-c2cnc(C(F)(F)F)cc2C)c1 [2-33]
22 | ≤ 100 | COc1ccc(OC)c(N(C)C(=O)c2cc(-c3cnc(C(F)(F)F)cc3C#N)c(Cl)cc2OCCCC(=O)O)c1 [34-13]

Row | Ki [nM] | SMILES
23 | ≤ 100 | COc1ccccc1N(C)C(=O)c1cc(-c2cnc(C(F)(F)F)cc2C#N)c(Cl)cc1OCCNC(C)=O [47-1, 2-(2-Acetylamino-ethoxy)-4-chloro-5-(4-cyano-6-trifluoromethyl-pyridin-3-yl)-N-(2-methoxy-phenyl)-N-methyl-benzamide]
24 | ≤ 100 | Cc1cnc(-c2cc(C(=O)N(C)c3cccc(C)c3C)ccc2Cl)c(C)c1 [2-68]
25 | ≤ 100 | COc1cccc(C)c1N(C)C(=O)c1cc(-c2cnc(C#N)cc2C)c(Cl)cc1OCCCCO [21-2]
26 | ≤ 100 | CN(C(=O)c1ccc(Cl)c(-c2ncc(Cl)cc2Cl)c1)c1ccccc1O [19-1, 4-Chloro-3-(3,5-dichloro-pyridin-2-yl)-N-(2-hydroxy-phenyl)-N-methyl-benzamide]
27 | ≤ 100 | Cc1cccc(C)c1N(C)C(=O)c1cc(-c2nc3ccccc3cc2C#N)c(Cl)cc1OCCCC(=O)O [22-6]
28 | ≤ 100 | COc1ccccc1N(C)C(=O)c1cc(-c2cnc(C(F)(F)F)cc2C#N)c(Cl)cc1OCCN1CCOCC1 [42-2]
29 | ≤ 100 | CN(C(=O)c1ccc(Cl)c(-c2cnc(C(F)(F)F)cc2C#N)c1)c1ccccc1OCCOc1ccccn1 [51-1, 4-Chloro-3-(4-cyano-6-trifluoromethyl-pyridin-3-yl)-N-methyl-N-{2-[2-(pyridin-2-yloxy)-ethoxy]-phenyl}-benzamide]
30 | ≤ 100 | COc1ccccc1N(C)C(=O)c1cc(-c2cnc(C(F)(F)F)cc2C#N)c(Cl)cc1OCCCc1ccccn1 [42-6]
31 | ≤ 100 | COc1ccccc1N(C)C(=O)c1cc(-c2cnc(C(F)(F)F)cc2C#N)c(Cl)cc1OCCCc1nnn[nH]1 [35-1, 4-Chloro-5-(4-cyano-6-trifluoromethyl-pyridin-3-yl)-N-(2-methoxy-phenyl)-N-methyl-2-[3-(1H-tetrazol-5-yl)-propoxy]-benzamide]
32 | ≤ 100 | Cc1cnc(-c2cc(C(=O)N(C)c3c(C)cccc3C)ccc2Cl)c(Cl)c1 [2-64]
33 | ≤ 100 | COc1cccc(C)c1N(C)C(=O)c1cc(-c2cnc(C#N)cc2C)c(Cl)cc1OCCCC(=O)O [22-2]
34 | ≤ 100 | CN(C(=O)c1ccc(Cl)c(-c2cnc(C(F)(F)F)cc2C#N)c1)c1ccccc1OCCC(=O)OCOC(=O)C(C)(C)C [36-1, 2,2-Dimethyl-propionic acid 3-(2-{[4-chloro-3-(4-cyano-6-trifluoromethyl-pyridin-3-yl)-benzoyl]-methyl-amino}-phenoxy)-propionyloxymethyl ester]
35 | ≤ 100 | Cc1ccccc1N(C)C(=O)c1cc(-c2nc3ccccc3cc2C#N)c(Cl)cc1OCCCC(=O)O [20-3]
36 | ≤ 100 | COc1ccccc1N(C)C(=O)c1ccc(Cl)c(-c2cnc(C(F)(F)F)cc2C)c1 [2-12]
37 | ≤ 100 | Cc1cc(C#N)ncc1-c1cc(C(=O)N(C)c2ccccc2CCCC(=O)O)ccc1Cl [14-3]
38 | ≤ 100 | CN(CC1CC1)C(=O)c1cc(-c2cnc(C(F)(F)F)cc2C#N)c(Cl)cc1OCCCC(=O)O [34-25]
39 | ≤ 100 | COc1ccccc1N(C)C(=O)c1ccc(Cl)c(-c2ccc(Cl)nc2Cl)c1 [2-6]
40 | ≤ 100 | CN(C(=O)c1ccc(Cl)c(-c2nc3ccccc3cc2C#N)c1)c1ccccc1OCCCO [10-2, 4-chloro-3-(3-cyano-quinolin-2-yl)-N-[2-(3-hydroxy-propoxy)-phenyl]-N-methyl-benzamide]
41 | ≤ 100 | Cc1cc(Cl)ncc1-c1cc(C(=O)N(C)c2ccccc2OCCCCC(=O)O)ccc1Cl [4-5]
42 | ≤ 100 | COc1ccccc1N(C)C(=O)c1ccc(Cl)c(-c2nc(C)c(Cl)cc2Cl)c1 [2-80]
43 | ≤ 100 | CN(C(=O)c1ccc(Cl)c(-c2cnc(C(F)(F)F)cc2C#N)c1)c1ccccc1OCCCC(=O)O [4-10]

— patent publication US8481738B2, “Gonadotropin-releasing hormone receptor antagonists and methods relating thereto” (Neurocrine Biosciences, Inc., priority 2007, dated 2013)
